Measured values taken from patent US7001983B1, “Antipathogenic synthetic peptides and compositions comprising them” (priority 1997, dated 2006).
Where “and” joins values, the source holds several entries; their conditions need not be identical. Equal entries are not always repeated. Square brackets hold non-standard residues; d marks the D form. Peptide text beside a SMILES is read from it.

Experiments:
Escherichia coli D21 = format: cell-based; details: for Minimal Inhibitory Concentration E. coli (D21): 100% inhibition of growth after 18–20 h
[1] = tested on: Acinetobacter calcoaceticus Ac11; format: cell-based; details: 100% inhibition of growth after 18–20 h
Bacillus megaterium Bm11 = format: cell-based; details: 100% inhibition of growth after 18–20 h
[2] = tested on: Salmonella typhimurium LT2; experiment: Antibacterial activity (MIC), growth inhibition in LB medium; format: cell-based; details: 100% inhibition of growth after 18–20 h
Description: (§1) (viii) Antibacterial activity of the peptides. The antibacterial activity of the diastereomers was examined in sterile 96-well plates (Nunc F96 microtiter plates) in a final volume of 100 μL as follows: Aliquots (50 μl) of a suspension containing bacteria at a concentration of 10^6 Colony-Forming Units (CFU)/ml LB (Lauria broth) medium were added to 50 μL of water or 66% pooled normal human serum in PBS, containing the peptide in 2-fold serial dilutions. Growth inhibition was determined by measuring the absorbance at 492 nm with a Microplate autoreader E1309 (Bio-tek Instruments), following incubation for 18–20 h at 37° C. […] The bacteria used were: Escherichia coli D21, Pseudomonas aeruginosa ATCC 27853, Acinetobacter calcoaceticus Ac11, Salmonella typhimurium LT2, Bacillus megaterium Bm11, Micrococcus Iuteus ATCC 9341, Bacillus subtilis ATCC 6051.

[3] = tested on: Pseudomonas aeruginosa ATCC 27853; details: for Minimal Inhibitory Concentration P. aeruginosa (ATCC 27853): 100% inhibition of growth after 18–20 h
Description: (viii) Antibacterial activity of the peptides.
Antibacterial activity of the mixtures was determined as described in Experimental procedures, section (xii).

[4] = tested on: human red blood cells (hRBC); experiment: Hemolysis of human red blood cells; format: cell-based; details: for % hemolysis at 50 μM peptide / % hemolysis at 100 μM: 30 min at 37° C.
Description: (ix) Hemolysis of human red blood cells. The peptides were tested for their hemolytic activities against human red blood cells (hRBC). Fresh hRBC with EDTA were rinsed 3 times with PBS (35 mM phosphate buffer/0.15 M NaCl, pH 7.3) by centrifugation for 10 min at 800 g and resuspended in PBS. Peptides dissolved in PBS were then added to 50 μL of a solution of the stock hRBC in PBS to reach a final volume of 100 μL (final erythrocyte concentration, 5% v/v). The resulting suspension was incubated under agitation for 30 min at 37° C. The samples were then centrifuged at 800 g for 10 min. Release of hemoglobin was monitored by measuring the absorbance of the supernatant at 540 nm. Controls for zero hemolysis (blank) and 100% hemolysis consisted of hRBC suspended in PBS and Triton 1%, respectively.

[5] = tested on: Micrococcus Iuteus ATCC 9341; experiment: Antibacterial activity (MIC), growth inhibition in LB medium; format: cell-based, Micrococcus luteus; details: 100% inhibition of growth after 18–20 h
Description: as §1

[6] = tested on: Bacillus subtilis ATCC 6051; format: cell-based; details: 100% inhibition of growth after 18–20 h

CC[C@H](C)[C@H](NC(=O)[C@H](CCCCN)NC(=O)[C@H]1CCCN1C(=O)[C@@H](NC(=O)[C@H](CC(C)C)NC(=O)[C@H](C)NC(=O)[C@H](Cc1ccccc1)NC(=O)[C@H](Cc1ccccc1)NC(=O)CNC(=O)[C@H](CCCCN)NC(=O)[C@@H](N)CCCCN)[C@@H](C)CC)C(=O)N[C@H](C(=O)N[C@@H](CO)C(=O)N[C@@H](CO)C(=O)N1CCC[C@H]1C(=O)N[C@@H](CC(C)C)C(=O)N[C@@H](Cc1ccccc1)C(=O)N[C@@H](CCCCN)C(=O)N[C@H](C(=O)N[C@H](CC(C)C)C(=O)N[C@H](CC(C)C)C(=O)N[C@@H](CO)C(=O)N[C@@H](C)C(=O)N[C@H](C(=O)O)C(C)C)[C@@H](C)O)[C@@H](C)CC [Peptide 6, K^1K^2[D]P^7L^18L^19[1-22]-par]
Minimal Inhibitory Concentration E. coli (D21) (Escherichia coli D21): 15 µM | Minimal Inhibitory Concentration A. calcoaceticus (Ac11) [1]: 6 µM | Minimal Inhibitory Concentration B. megaterium (Bm11) (Bacillus megaterium Bm11): 6 µM | Minimal Inhibitory Concentration S. typhimurium (LT2) [2]: 120 µM | Minimal Inhibitory Concentration P. aeruginosa (ATCC 27853) [3]: 60 µM | % hemolysis at 50 μM peptide ([4]; hRBC): 0%

CC[C@H](C)[C@H](NC(=O)[C@H](CCCCN)NC(=O)[C@H]1CCCN1C(=O)[C@@H](NC(=O)[C@H](CC(C)C)NC(=O)[C@H](C)NC(=O)[C@H](Cc1ccccc1)NC(=O)[C@H](Cc1ccccc1)NC(=O)CN)[C@@H](C)CC)C(=O)N[C@H](C(=O)N[C@@H](CO)C(=O)N[C@@H](CO)C(=O)N1CCC[C@H]1C(=O)N[C@@H](CC(C)C)C(=O)N[C@@H](Cc1ccccc1)C(=O)N[C@@H](CCCCN)C(=O)N[C@H](C(=O)N[C@@H](CC(C)C)C(=O)N[C@@H](CC(C)C)C(=O)N[C@@H](CO)C(=O)N[C@@H](C)C(=O)N[C@H](C(=O)NCC(=O)N[C@@H](CO)C(=O)N[C@@H](C)C(=O)N[C@@H](CC(C)C)C(=O)N[C@@H](CO)C(=O)N[C@@H](CO)C(=O)N[C@@H](CO)C(=O)NCC(=O)NCC(=O)N[C@@H](CCC(N)=O)C(=O)N[C@@H](CCC(=O)NCCN)C(=O)NCCN)C(C)C)[C@@H](C)O)[C@@H](C)CC [Peptide 12, [D]P^7-TApar]
Minimal Inhibitory Concentration E. coli (D21) (Escherichia coli D21): 10 µM | Minimal Inhibitory Concentration A. calcoaceticus (Ac11) [1]: 5 µM | Minimal Inhibitory Concentration B. megaterium (Bm11) (Bacillus megaterium Bm11): 1.2 µM | Minimal Inhibitory Concentration M. luteus (ATCC 9341) [5]: 5 µM | Minimal Inhibitory Concentration B. subtilis (ATCC 6051) [6]: 2 µM | % hemolysis at 50 μM peptide ([4]; hRBC): 49%

CC[C@H](C)[C@H](NC(=O)[C@H](CCCCN)NC(=O)[C@@H]1CCCN1C(=O)[C@@H](NC(=O)[C@H](CC(C)C)NC(=O)[C@H](C)NC(=O)[C@H](Cc1ccccc1)NC(=O)[C@H](Cc1ccccc1)NC(=O)CN)[C@@H](C)CC)C(=O)N[C@H](C(=O)N[C@@H](CO)C(=O)N[C@@H](CO)C(=O)N1CCC[C@H]1C(=O)N[C@@H](CC(C)C)C(=O)N[C@@H](Cc1ccccc1)C(=O)N[C@@H](CCCCN)C(=O)N[C@H](C(=O)N[C@H](CC(C)C)C(=O)N[C@H](CC(C)C)C(=O)N[C@@H](CO)C(=O)N[C@@H](C)C(=O)N[C@H](C(=O)NCC(=O)N[C@@H](CO)C(=O)N[C@@H](C)C(=O)N[C@@H](CC(C)C)C(=O)N[C@@H](CO)C(=O)N[C@@H](CO)C(=O)N[C@@H](CO)C(=O)NCC(=O)NCC(=O)N[C@@H](CCC(N)=O)C(=O)N[C@@H](CCC(=O)NCCN)C(=O)NCCN)C(C)C)[C@@H](C)O)[C@@H](C)CC [Peptide 14, [D]L^18L^19-TApar]
Minimal Inhibitory Concentration E. coli (D21) (Escherichia coli D21): 3.5 µM | Minimal Inhibitory Concentration A. calcoaceticus (Ac11) [1]: 1.5 µM and 2.5 µM | Minimal Inhibitory Concentration B. megaterium (Bm11) (Bacillus megaterium Bm11): 0.6 µM | Minimal Inhibitory Concentration M. luteus (ATCC 9341) [5]: 2.5 µM | Minimal Inhibitory Concentration B. subtilis (ATCC 6051) [6]: 1.5 µM | % hemolysis at 50 μM peptide ([4]; hRBC): 100%

CC[C@@H](C)[C@@H](NC(=O)[C@H](CC(C)C)NC(=O)[C@H](C)NC(=O)[C@@H]1CCCN1C(=O)[C@H](CC(C)C)NC(=O)CNC(=O)[C@@H](NC(=O)[C@@H](NC(=O)[C@H](CC(C)C)NC(=O)[C@H](NC(=O)[C@H](CCCCN)NC(=O)[C@H](CC(C)C)NC(=O)[C@H](NC(=O)[C@H](C)NC(=O)CNC(=O)[C@@H](NC(=O)CN)[C@@H](C)CC)C(C)C)C(C)C)[C@@H](C)O)[C@@H](C)O)C(=O)N[C@@H](CO)C(=O)N[C@@H](Cc1c[nH]c2ccccc12)C(=O)N[C@H](C(=O)N[C@H](CCCCN)C(=O)N[C@@H](CCCNC(=N)N)C(=O)N[C@@H](CCCCN)C(=O)N[C@@H](CCCNC(=N)N)C(=O)N[C@@H](CCC(N)=O)C(=O)N[C@@H](CCC(N)=O)C(=O)O)[C@@H](C)CC [Peptide 19, [D]-V^5V^8I^17K^21-mel-COOH]
Minimal Inhibitory Concentration E. coli (D21) (Escherichia coli D21): 18 µM | Minimal Inhibitory Concentration A. calcoaceticus (Ac11) [1]: 18 µM | Minimal Inhibitory Concentration B. megaterium (Bm11) (Bacillus megaterium Bm11): 1.2 µM | Minimal Inhibitory Concentration M. luteus (ATCC 9341) [5]: 50 µM | Minimal Inhibitory Concentration B. subtilis (ATCC 6051) [6]: 8 µM | % hemolysis at 50 μM peptide ([4]; hRBC): 0% | hemolytic activity up to the maximum concentration tested ([4]; hRBC, up to 50 μM): practically devoid of hemolytic activity

CC[C@@H](C)[C@@H](NC(=O)[C@H](CC(C)C)NC(=O)[C@H](C)NC(=O)[C@@H]1CCCN1C(=O)[C@H](CC(C)C)NC(=O)CNC(=O)[C@@H](NC(=O)[C@@H](NC(=O)[C@H](CC(C)C)NC(=O)[C@H](NC(=O)[C@H](CCCCN)NC(=O)[C@H](CC(C)C)NC(=O)[C@H](NC(=O)[C@H](C)N)C(C)C)C(C)C)[C@@H](C)O)[C@@H](C)O)C(=O)N[C@@H](CO)C(=O)N[C@@H](Cc1c[nH]c2ccccc12)C(=O)N[C@H](C(=O)N[C@H](CCCCN)C(=O)N[C@@H](CCCNC(=N)N)C(=O)NCCN)[C@@H](C)CC [Peptide 21, [D]-V^5V^8I^17K^21-[4-22]-TAmel]
Minimal Inhibitory Concentration E. coli (D21) (Escherichia coli D21): 21 µM | Minimal Inhibitory Concentration A. calcoaceticus (Ac11) [1]: 14 µM | Minimal Inhibitory Concentration B. megaterium (Bm11) (Bacillus megaterium Bm11): 1.2 µM | Minimal Inhibitory Concentration M. luteus (ATCC 9341) [5]: 28 µM | % hemolysis at 50 μM peptide ([4]; hRBC): 0%

CC(C)C[C@H](NC(=O)[C@H](CC(C)C)NC(=O)[C@@H](CC(C)C)NC(=O)[C@@H](CC(C)C)NC(=O)[C@H](CC(C)C)NC(=O)[C@@H](N)CCCCN)C(=O)N[C@@H](CCCCN)C(=O)N[C@H](CC(C)C)C(=O)N[C@@H](CC(C)C)C(=O)N[C@H](CC(C)C)C(=O)N[C@@H](CC(C)C)C(=O)N[C@@H](CCCCN)C(N)=O [Peptide 22, [D]-L^3,4,8,10-K3L9] (H-KL[dL][dL]LLK[dL]L[dL]LK-NH2)
Minimal Inhibitory Concentration E. coli (D21) (Escherichia coli D21): 9 µM | Minimal Inhibitory Concentration A. calcoaceticus (Ac11) [1]: 20 µM | Minimal Inhibitory Concentration B. megaterium (Bm11) (Bacillus megaterium Bm11): 0.7 µM | Minimal Inhibitory Concentration P. aeruginosa (ATCC 27853) [3]: 125 µM | Minimal Inhibitory Concentration B. subtilis (ATCC 6051) [6]: 1.1 µM | hemolytic activity in comparison to melittin (fold less) ([4]; hRBC dose response): > 60 fold | % hemolysis at 100 μM ([4]; hRBC): 58%

CC(C)C[C@H](NC(=O)[C@H](CCCCN)NC(=O)[C@@H](CC(C)C)NC(=O)[C@@H](CC(C)C)NC(=O)[C@H](CC(C)C)NC(=O)[C@@H](N)CCCCN)C(=O)N[C@@H](CCCCN)C(=O)N[C@H](CC(C)C)C(=O)N[C@@H](CCCCN)C(=O)N[C@H](CC(C)C)C(=O)N[C@@H](CC(C)C)C(=O)N[C@@H](CCCCN)C(N)=O [Peptide 24, [D]-L^3,4,8,10-K5L7] (H-KL[dL][dL]KLK[dL]K[dL]LK-NH2)
Minimal Inhibitory Concentration E. coli (D21) 0% Serum (Escherichia coli D21; 0% Serum): 7 µM | Minimal Inhibitory Concentration E. coli (D21) 33% Serum (Escherichia coli D21; 33% pooled human serum): 7 µM | Minimal Inhibitory Concentration E. coli (D21) (Escherichia coli D21): 7 µM | Minimal Inhibitory Concentration A. calcoaceticus (Ac11) [1]: 20 µM | Minimal Inhibitory Concentration B. megaterium (Bm11) (Bacillus megaterium Bm11): 0.25 µM | Minimal Inhibitory Concentration P. aeruginosa (ATCC-27853) 0% Serum ([3]; 0% Serum): 10 µM | Minimal Inhibitory Concentration P. aeruginosa (ATCC-27853) 33% Serum ([3]; 33% pooled human serum): 10 µM | Minimal Inhibitory Concentration P. aeruginosa (ATCC 27853) [3]: 10 µM | Minimal Inhibitory Concentration B. subtilis (ATCC 6051) [6]: 2 µM | % hemolysis at 100 μM ([4]; hRBC): 0%

CC(C)C[C@H](NC(=O)[C@H](CCCCN)NC(=O)[C@@H](CC(C)C)NC(=O)[C@@H](CC(C)C)NC(=O)[C@H](CCCCN)NC(=O)[C@@H](N)CCCCN)C(=O)N[C@@H](CCCCN)C(=O)N[C@H](CC(C)C)C(=O)N[C@@H](CCCCN)C(=O)N[C@H](CC(C)C)C(=O)N[C@@H](CCCCN)C(=O)N[C@@H](CCCCN)C(N)=O [Peptide 25, [D]-L^3,4,8,10-K7L5] (H-KK[dL][dL]KLK[dL]K[dL]KK-NH2; N-terminus assumed)
Minimal Inhibitory Concentration E. coli (D21) (Escherichia coli D21): 80 µM | Minimal Inhibitory Concentration A. calcoaceticus (Ac11) [1]: 200 µM | Minimal Inhibitory Concentration B. megaterium (Bm11) (Bacillus megaterium Bm11): 1 µM | Minimal Inhibitory Concentration P. aeruginosa (ATCC 27853) [3]: >200 µM | Minimal Inhibitory Concentration B. subtilis (ATCC 6051) [6]: 100 µM | % hemolysis at 100 μM ([4]; hRBC): 0%
